In ChEMBL document CHEMBL6153048, “Synthesis and pharmacological evaluation of natural product diphyllin derivatives against head and neck squamous cell carcinoma” (Eur J Med Chem, 2025):
pIC50: −log10 of the molar value. The source made the active and inactive calls. No cut-off for these calls is given here.

Experiments:
SCC-9 [1] = experiment: Cytotoxicity against human SCC-9 cells incubated for 72 hrs by MTT assay; assay type: functional, cell-based; conditions: SCC-9, 72 h
SCC-9 [2] = experiment: Antiproliferative activity against human SCC-9 cells assessed as inhibition rate at 0.1 uM incubated for 72 hrs by MTT assay relative to control; assay type: functional
[3] = Cytotoxicity against human […] incubated for 72 hrs by MTT assay; assay type: functional, cell-based; conditions: WSU-HN30, 72 h
[4] = Antiproliferative activity against human L02 cells assessed as inhibition rate at 0.1 uM incubated for 72 hrs by MTT assay relative to control; assay type: toxicity, cell-based
[5] = Antiproliferative activity against human HN-6 cells assessed as inhibition rate at 0.1 uM incubated for 72 hrs by MTT assay relative to control; assay type: functional
[6] = Cytotoxicity against human HN-6 cells incubated for 72 hrs by MTT assay; assay type: functional, cell-based; conditions: HN-6, 72 h
CAL-27 [7] = experiment: Antiproliferative activity against human CAL-27 cells assessed as inhibition of cell communities at 10 uM treated for 11 days by plate clone formation assay; assay type: functional, cell-based; conditions: time 11.0 day
SCC-25 [8] = experiment: Cytotoxicity against human SCC-25 cells incubated for 72 hrs by MTT assay; assay type: functional, cell-based; conditions: SCC-25, 72 h
CAL-27 [9] = experiment: Antiproliferative activity against human CAL-27 cells assessed as inhibition rate at 0.1 uM incubated for 72 hrs by MTT assay relative to control; assay type: functional
[10] = Antiproliferative activity against human WSU HN-30 cells assessed as inhibition rate at 0.1 uM incubated for 72 hrs by MTT assay relative to control; assay type: functional; conditions: WSU-HN30
[11] = Cytotoxicity against human L02 cells incubated for 72 hrs by MTT assay; assay type: toxicity, cell-based
CAL-27 [12] = experiment: Cytotoxicity against human CAL-27 cells incubated for 72 hrs by MTT assay; assay type: functional, cell-based; conditions: CAL-27, 72 h
SCC-25 [13] = experiment: Antiproliferative activity against human SCC-25 cells assessed as inhibition rate at 0.1 uM incubated for 72 hrs by MTT assay relative to control; assay type: functional

SMILES	pIC50 (SCC-9 [1])	inhibition at 0.1 µM (SCC-9 [2])	pIC50 [3]	inhibition at 72 h, 0.1 µM [4]	inhibition at 0.1 µM [5]	pIC50 [6]	Activity (CAL-27 [7])	pIC50 (SCC-25 [8])	inhibition at 0.1 µM (CAL-27 [9])	inhibition at 0.1 µM [10]	IC50 at 72 h [11]	pIC50 (CAL-27 [12])	inhibition at 0.1 µM (SCC-25 [13])
COc1cc2c(O[C@@H]3O[C@@H]4CO[C@@H](c5ccco5)O[C@H]4[C@H](O)[C@H]3O)c3c(c(-c4ccc5c(c4)OCO5)c2cc1OC)C(=O)OC3	8.30	52.9%	6.61	5.23%	58.7%	8.07	Active	8.37	50.9%	45.7%	> 10000 nM	8.26	54.6%
COc1cc2c(O[C@@H]3O[C@@H]4CO[C@@H](c5ccsc5)O[C@H]4[C@H](OC(C)=O)[C@H]3OC(C)=O)c3c(c(-c4ccc5c(c4)OCO5)c2cc1OC)C(=O)OC3	7.79	45.8%	7.03	9.07%	61.1%	7.94	–	7.36	48.2%	49.4%	> 10000 nM	7.70	47.4%
